Experimental data from patent US11952584B2, “Functional peptides having antimicrobial activity against phytopathogenic microorganisms” (TOYOTA JIDOSHA KABUSHIKI KAISHA, priority 2019, dated 2024).
Like-named read-outs stand apart in the source and are kept apart here.

Columns and labels:
Format in all cases: cell-based
[1] = test system: Fusarium oxysporum
[2] = test system: Colletotrichum destructivum; details: 25° C., 1 day or 2 days
[3] = test system: Colletotrichum orbiculare; details: 25° C., 1 day or 2 days
[4] = test system: Botrytis cinerea; details: 25° C., 1 day or 2 days
[5] = test system: Pyricularia oryzae; details: 25° C., 1 day or 2 days

Substance | Plate antimicrobial activity test Fusarium oxysporum (level) [1] | Plate antimicrobial activity test Colletotrichum destructivum (level) ([2]; peptide 1 μM) | Plate antimicrobial activity test Colletotrichum destructivum (level) ([2]; peptide 10 μM) | Plate antimicrobial activity test Colletotrichum destructivum (level) ([2]; peptide 100 μM) | Plate antimicrobial activity test Collectotrichum orbiculare (level) ([3]; peptide 1 μM) | Plate antimicrobial activity test Collectotrichum orbiculare (level) ([3]; peptide 10 μM) | Plate antimicrobial activity test Collectotrichum orbiculare (level) ([3]; peptide 100 μM) | Plate antimicrobial activity test Botrytis cinerea (level) ([4]; peptide 1 μM) | Plate antimicrobial activity test Botrytis cinerea (level) ([4]; peptide 10 μM) | Plate antimicrobial activity test Botrytis cinerea (level) ([4]; peptide 100 μM) | Plate antimicrobial activity test Pyricularia oryzae (level) ([5]; peptide 1 μM) | Plate antimicrobial activity test Pyricularia oryzae (level) ([5]; peptide 10 μM) | Plate antimicrobial activity test Pyricularia oryzae (level) ([5]; peptide 100 μM)
PAFSERTR (listed as Solanum lycopersicum) [TsORF18-2-8aa-5] | 0 | 0 | 0 | 0 | 0 | 0 | 0 | 0 | 0 | 0 | 0 | 0 | 0
KGKTS (listed as Solanum lycopersicum) [TsORF18-2-5aa-19] | 0 | 0 | 0 | 0 | 0 | 0 | 0 | 0 | 0 | 0 | 0 | 0 | 0
TRKFW (listed as Solanum lycopersicum) [TsORF18-2-5aa-11] | 0 | 0 | 0 | 0 | 0 | 0 | 0 | 0 | 0 | 0 | 0 | 0 | 0
FPAFSERT (listed as Solanum lycopersicum) [TsORF18-2-8aa-4] | 0 | 0 | 0 | 0 | 0 | 0 | 0 | 0 | 0 | 0 | 0 | 0 | 0
GFPAFSER (listed as Solanum lycopersicum) [TsORF18-2-8aa-3] | 0 | 0 | 0 | 0 | 0 | 0 | 0 | 0 | 0 | 0 | 0 | 0 | 0
RIWKG (listed as Solanum lycopersicum) [TsORF18-2-5aa-16] | 0 | 0 | 0 | 0 | 0 | 0 | 0 | 0 | 0 | 0 | 0 | 0 | 0
YYGFPAFS (listed as Solanum lycopersicum) [TsORF18-2-8aa-1] | 0 | 0 | 0 | 0 | 0 | 0 | 0 | 0 | 0 | 0 | 0 | 0 | 0
RTRKF (listed as Solanum lycopersicum) [TsORF18-2-5aa-10] | 0 | 0 | 0 | 0 | 0 | 0 | 0 | 0 | 0 | 1 | 0 | 0 | 0
AFSER (listed as Solanum lycopersicum) [TsORF18-2-5aa-6] | 0 | 0 | 0 | 0 | 0 | 0 | 0 | 0 | 0 | 0 | 0 | 0 | 0
WKGKT (listed as Solanum lycopersicum) [TsORF18-2-5aa-18] | 0 | 0 | 0 | 0 | 0 | 0 | 0 | 0 | 0 | 0 | 0 | 0 | 0
